Measured values as given in the supplement of paper PMC10307832.

Key:
Test in all cases: relative viability (nuclei count vs DMSO), 5 days (fraction); higher = more cells survive
Alpelisib + Luminespib = compound: Cc1nc(NC(=O)N2CCC[C@H]2C(N)=O)sc1-c1ccnc(C(C)(C)C(F)(F)F)c1 [Alpelisib] + CCNC(=O)c1noc(-c2cc(C(C)C)c(O)cc2O)c1-c1ccc(CN2CCOCC2)cc1 [Luminespib] (partner 0.01 µM)
How it was run: (§1)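 Lung cancer cell lines in 1536-well plates got either a single drug or a fixed anchor-drug dose together with five library-drug doses (not always all listed) in √10 steps, by pin tool, on the day after seeding. Nuclei were counted after 5 days, and relative viability is the treated-to-vehicle ratio of nuclei counts. Values are medians of duplicate plates.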

Vemurafenib + Tozasertib = compound: CCCS(=O)(=O)Nc1ccc(F)c(C(=O)c2c[nH]c3ncc(-c4ccc(Cl)cc4)cc23)c1F [Vemurafenib] + Cc1cc(Nc2cc(N3CCN(C)CC3)nc(Sc3ccc(NC(=O)C4CC4)cc3)n2)n[nH]1 [Tozasertib] (partner 0.1 µM)
How it was run: as §1

Alpelisib + Crizotinib = compound: Cc1nc(NC(=O)N2CCC[C@H]2C(N)=O)sc1-c1ccnc(C(C)(C)C(F)(F)F)c1 [Alpelisib] + C[C@@H](Oc1cc(-c2cnn(C3CCNCC3)c2)cnc1N)c1c(Cl)ccc(F)c1Cl [Crizotinib] (partner 1 µM)
How it was run: as §1

OSI-027 + Olaparib = compound: COc1cccc2cc(-c3nc([C@H]4CC[C@H](C(=O)O)CC4)n4ncnc(N)c34)[nH]c12 [OSI-027] + O=C(c1cc(Cc2n[nH]c(=O)c3ccccc23)ccc1F)N1CCN(C(=O)C2CC2)CC1 [Olaparib] (partner 8 µM)
How it was run: as §1

UMC-11
relative viability (Alpelisib + Luminespib; first compound 0.04 µM): 1.04
relative viability (Alpelisib + Luminespib; first compound 0.1265 µM): 1.05
relative viability (Alpelisib + Luminespib; first compound 0.4 µM): 1.06
relative viability (Alpelisib + Luminespib; first compound 1.265 µM): 0.766
relative viability (Alpelisib + Luminespib; first compound 4 µM): 0.729
relative viability (Vemurafenib + Tozasertib; first compound 0.03162 µM): 0.217
relative viability (Vemurafenib + Tozasertib; first compound 0.1 µM): 0.216
relative viability (Vemurafenib + Tozasertib; first compound 0.3162 µM): 0.199
relative viability (Vemurafenib + Tozasertib; first compound 1 µM): 0.212
relative viability (Alpelisib + Crizotinib; first compound 0.04 µM): 0.589
relative viability (Alpelisib + Crizotinib; first compound 0.1265 µM): 0.516
relative viability (Alpelisib + Crizotinib; first compound 0.4 µM): 0.724
relative viability (Alpelisib + Crizotinib; first compound 1.265 µM): 0.688
relative viability (Alpelisib + Crizotinib; first compound 4 µM): 0.536
relative viability (OSI-027 + Olaparib; first compound 0.01 µM): 0.388
relative viability (OSI-027 + Olaparib; first compound 0.03162 µM): 0.42
relative viability (OSI-027 + Olaparib; first compound 0.1 µM): 0.31
relative viability (OSI-027 + Olaparib; first compound 0.3162 µM): 0.349
relative viability (OSI-027 + Olaparib; first compound 1 µM): 0.291
